The values that follow come from article PMC12257413, “Discovery of a Novel sp^3‑Rich M1 Positive Allosteric Modulators (PAMs) Chemotype via Scaffold Hopping” (ACS Medicinal Chemistry Letters, 2025).

Assay [1] has as its target T1, rat muscarinic receptor subtype 1 (M1) (Rattus norvegicus, UniProt P08482).
T1 construct: expressed in transfected cells
T1 sequence (P08482 1-460): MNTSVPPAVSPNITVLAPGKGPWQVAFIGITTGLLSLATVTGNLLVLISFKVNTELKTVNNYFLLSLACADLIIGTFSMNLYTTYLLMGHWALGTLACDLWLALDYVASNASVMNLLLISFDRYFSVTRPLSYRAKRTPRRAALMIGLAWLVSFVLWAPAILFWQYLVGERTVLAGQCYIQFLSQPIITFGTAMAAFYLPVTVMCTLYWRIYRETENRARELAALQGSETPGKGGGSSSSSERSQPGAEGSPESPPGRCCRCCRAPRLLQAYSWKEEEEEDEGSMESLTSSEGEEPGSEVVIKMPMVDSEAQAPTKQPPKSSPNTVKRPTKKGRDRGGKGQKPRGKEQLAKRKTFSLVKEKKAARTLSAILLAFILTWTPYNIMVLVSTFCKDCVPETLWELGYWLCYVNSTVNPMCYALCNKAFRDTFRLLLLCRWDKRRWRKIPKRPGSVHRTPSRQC
In words: Calcium mobilization assay in rM1-CHO cells, PAM activity with EC20 acetylcholine. The format is cell-based. As to conditions: for EC50: read-out: rM1 pEC50 ± SEM (converted). As for the experimental part: (§1) page 2: Procedures for Biological Experiments Calcium mobilization assays: To measure the functional activity of positive allosteric modulator (PAM) compounds in a cellular assay, human or rat muscarinic receptor subtype 1 (M1) was stably expressed in the Chinese hamster ovary (CHO) cells to evoke an increase in intracellular calcium to an EC20 concentration of acetylcholine (ACh) agonist. The stable M1-CHO cells were cultured in F12 medium containing 10% fetal bovine serum, 20 mM HEPES, 100 units/mL antibiotics/antimycotic, 0.5 mg/ml G418. All reagents used were from Life Technologies (Carlsbad, CA) unless otherwise noted. Briefly, the day before the assay, stable M1-CHO cells (15,000 cells/20 μL/well) were plated in black-walled, clear-bottomed, 384 well plates (Greiner Bio-One, Monroe, NC) in the culture medium without G418, and then incubated overnight at 37 °C in the presence of 5% CO2. The next day, calcium assay buffer (Hank’s balanced salt solution (HBSS), 20 mM HEPES, 2.5 mM Probenecid, 4.16 mM sodium bicarbonate (Sigma-Aldrich, St. Louis, MO) was prepared to dilute […] calcium indicator dye. […] curves in DMSO using the Bravo Liquid Handler (Agilent, Santa Clara, CA), transferred to a 384 well daughter plates using an Echo acoustic liquid handler (Beckman Coulter, Indianapolis, Indiana), and diluted in assay Buffer to a 2X final concentration. The agonist plates were prepared using acetylcholine (ACh, Sigma-Aldrich, St. Louis, MO) concentrations for the EC20 and ECMAX responses by diluting in assay buffer to a 5X final concentration. The 2X dye solution (2.3 µM) was prepared by mixing a 2.3 mM Fluo-4-AM stock in DMSO with 10% (w/v) pluronic acid F- 127 in a 1:1 ratio in assay buffer. Using a microplate washer (BioTek, Winooski, VT), cells were washed with assay buffer for 3 times to remove medium. After the final wash, 20 μL of assay buffer remained in the cell plates. Immediately, 20 μL of the 2X dye solution (final 1.15 µM) was added to each well of the cell plate using a Multidrop Combi dispenser (Thermo Fisher, Waltham, MA). After cells were incubated with the dye solutions for 45 min at 37 °C in the presence of 5% CO2, the dye solutions were removed and replaced with assay buffer using a microplate washer, leaving 20 μL of assay buffer in the cell plate. The compound, agonist, and cell plates were placed inside the Functional Drug Screening System uCell (FDSS uCell, Hamamatsu, Japan) to measure the calcium flux. The triple add protocol was used to measure Ca kinetics; Compound, ACh for EC20, and ACh for ECMAX adds in an order. Briefly, after establishment of a fluorescence baseline S2 page 3: for 2 seconds (excitation, 480 nm; emission, 530 nm), first add occurred by adding 20 µL of test compound to the cells, and the response was measured for 140 seconds. This is followed by second add; 10 µL (5X) of an EC20 concentration of ACh agonist was added to the cells, and the response of the cells was measured for 125 seconds. Immediately, the third add occurred by adding 12 ul assay buffer or 5X of an EC max concentration of ACh and the response of the cells was measured for 90 seconds. Assay buffer was added to the wells that incubated with compounds followed by EC20 concentration of ACh. Agonists containing ECmax concentration of ACh were added to the wells that incubated with DMSO and assay buffer from the 1st and 2nd adds to measure maximum Ca responses (ECmax). Calcium fluorescence was recorded as fold over basal fluorescence and raw data were normalized to the maximal response to ACh agonist. […]
In general terms: A change in cytosolic calcium serves as a functional read-out for many receptors and channels.

Assay [2] concerns the target T2, human muscarinic receptor subtype 1 (M1) (Homo sapiens, UniProt P11229).
T2 sequence (P11229 1-460): T1 sequence (P08482 1-460) with V5A, S254T, S309P, K320R, G337A, V413I
As to the kind of experiment: Calcium mobilization assay in hM1-CHO cells, PAM activity with EC20 acetylcholine. The format is cell-based. As to conditions: for EC50: read-out: hM1 pEC50 ± SEM (converted). As for the experimental part: as §1

Positions count from the first letter of the chain named.

For the compound `Cn1cc(-c2ccc(Cc3cc(C(=O)N[C@H]4CC[C@@H]4O)nn3-c3ccccc3)cc2)cn1` [17d], in assay [1], the “rM1 %ACh Max ± SEM” value stood at 51 ± 3.9 %ACh Max and the EC50 is above 10000 nM. For the same compound, in assay [2], the “hM1 %ACh Max ± SEM” value came to 48 ± 7.4 %ACh Max and the EC50 is above 10000 nM.

Regarding `Cn1cc(-c2ccc(Cc3cc(C(=O)N[C@H]4CCOC[C@@H]4O)nn3C3CCOC3)cc2)cn1` (stereo partly shown) [17j], in assay [1], the “rM1 %ACh Max ± SEM” value is recorded as 75 ± 7.6 %ACh Max and the EC50 is 562 nM. Also, in assay [2], the “hM1 %ACh Max ± SEM” value worked out at 71 ± 4.1 %ACh Max and the EC50 was 1200 nM.

Take `Cn1cc(-c2ccc(Cc3cc(C(=O)N[C@H]4CCC[C@@H]4O)nn3-c3ccccc3)cc2)cn1` [17c]: in assay [1], the “rM1 %ACh Max ± SEM” value amounted to 69 ± 4.3 %ACh Max and the EC50 is above 10000 nM. Moreover, in assay [2], the “hM1 %ACh Max ± SEM” value amounted to 58 ± 3.0 %ACh Max and the EC50 was above 10000 nM.

Regarding `CNC(=O)c1ccc(Cc2cc(C(=O)N[C@H]3CCOC[C@@H]3O)nn2C2CCCC2)cc1` [compound 21], the EC50 in assay [1] was 794 nM; in assay [2] it was 1260 nM.

For `Cn1cc(-c2ccc(Cc3cc(C(=O)N[C@H]4CCC[C@@H]4O)nn3C3CCCC3)cc2)cn1` [17m], in assay [1], the “rM1 %ACh Max ± SEM” value came out at 73 ± 5.3 %ACh Max and the EC50 is 1580 nM. In addition, in assay [2], the “hM1 %ACh Max ± SEM” value amounted to 76 ± 10 %ACh Max and the EC50 is 2140 nM.

As for `Cn1cc(-c2ccc(Cc3cc(C(=O)N[C@H]4CCOC[C@@H]4O)nn3-c3ccccc3)cc2)cn1` [17b], in assay [1], the “rM1 %ACh Max ± SEM” value is reported as 84 ± 4.6 %ACh Max and the EC50 is 1200 nM. In assay [2], the “hM1 %ACh Max ± SEM” value worked out at 74 ± 0.6 %ACh Max and the EC50 was 2000 nM.

In the case of `Cn1cc(-c2ccc(Cc3cc(C(=O)N[C@@H]4CCOC[C@H]4F)nn3C3CCCC3)cc2)cn1` [17n], in assay [1], the “rM1 %ACh Max ± SEM” value is recorded as 72 ± 3.8 %ACh Max and the EC50 is 4170 nM. Also, in assay [2], the “hM1 %ACh Max ± SEM” value turned out to be 67 ± 2.5 %ACh Max and the EC50 was 6610 nM.

On to `Cn1cc(-c2ccc(Cc3cc(C(=O)NC4CC5(COC5)C4)nn3C3CCCC3)cc2)cn1` [17p], for which, in assay [1], the “rM1 %ACh Max ± SEM” value stood at 76 ± 4.2 %ACh Max and the EC50 is 1910 nM. In assay [2], the “hM1 %ACh Max ± SEM” value worked out at 78 ± 8.8 %ACh Max and the EC50 is 2950 nM.

Consider `Cn1cc(-c2ccc(Cc3cc(C(=O)NC4CC(F)C4)nn3C3CCCC3)cc2)cn1` (stereo not shown) [17o], for which, in assay [1], the “rM1 %ACh Max ± SEM” value is given as 50 ± 3.7 %ACh Max and the EC50 was above 10000 nM. In assay [2], the “hM1 %ACh Max ± SEM” value is given as 46 ± 1.1 %ACh Max and the EC50 is above 10000 nM.

For the compound `Cn1cc(-c2ccc(Cc3cc(C(=O)N[C@H]4CCOC[C@@H]4O)nn3C3CCCCC3)cc2)cn1` [17h], in assay [1], the “rM1 %ACh Max ± SEM” value came to 80 ± 7.1 %ACh Max and the EC50 is 1480 nM. In assay [2], the “hM1 %ACh Max ± SEM” value is 73 ± 3.1 %ACh Max and the EC50 is 4900 nM.

In the case of `Cn1cc(-c2ccc(Cc3cc(C(=O)N[C@H]4CCCCC[C@@H]4O)nn3-c3ccccc3)cc2)cn1` [17e], in assay [1], the “rM1 %ACh Max ± SEM” value stood at 80 ± 3.2 %ACh Max and the EC50 was 3470 nM. For the same compound, in assay [2], the “hM1 %ACh Max ± SEM” value stood at 72 ± 2.6 %ACh Max and the EC50 is 4570 nM.

`CC(C)n1nc(C(=O)N[C@H]2CCOC[C@@H]2O)cc1Cc1ccc(-c2cnn(C)c2)cc1` [17i]: in assay [1], the “rM1 pEC50 ± SEM” value is “Inactive (n = 3) Inactive (n = 3)”. For the same compound, the “hM1 pEC50 ± SEM” value in assay [2] was “Inactive (n = 3) Inactive (n = 3)”.

On to `Cn1cc(-c2ccc(Cc3cc(C(=O)N[C@H]4CCOC[C@@H]4O)nn3Cc3ccccc3)cc2)cn1` [17f], for which, in assay [1], the “rM1 %ACh Max ± SEM” value is recorded as 57 ± 4.6 %ACh Max and the EC50 is above 10000 nM. Moreover, the EC50 in assay [2] is above 10000 nM.

`Cn1cc(-c2ccc(Cc3cc(C(=O)N[C@H]4CCCCC[C@@H]4O)nn3C3CCCC3)cc2)cn1` [17l]: in assay [1], the “rM1 %ACh Max ± SEM” value came out at 81 ± 3.8 %ACh Max and the EC50 was 724 nM. In addition, in assay [2], the “hM1 %ACh Max ± SEM” value was 79 ± 4.4 %ACh Max and the EC50 is 661 nM.

In the case of `Cn1cc(-c2ccc(Cc3cc(C(=O)N[C@H]4CCCC[C@@H]4O)nn3-c3ccccc3)cc2)cn1` [17a], in assay [1], the “rM1 %ACh Max ± SEM” value came out at 80 ± 3.8 %ACh Max and the EC50 was 2510 nM. In addition, in assay [2], the “hM1 %ACh Max ± SEM” value was determined as 70 ± 1.5 %ACh Max and the EC50 is 3020 nM.
